# Laboratory results as given in article PMC2876208 (Cancer, 2010).
# Counter-ions that a name gives are not always drawn.
# Columns and labels:
# [1] = Phase 1 dose-escalation study: safety, adverse events; type: in vivo
# Ph-positive CML or ALL = assay: Phase 1 study: cytogenetic and hematologic response; type: in vivo, human
# [2] = cited from earlier work
# Lyn kinase = conditions: cited from earlier work
# Bcr-Abl F317V = conditions: cited from earlier work
# [3] = 30 mg/kg dose level, 4-week; ref data on file, 24; cited from earlier work
# unmutated Bcr-Abl = conditions: cited from earlier work
# [4] = Phase 1 study: pharmacokinetics in patients; type: in vivo, human; conditions: for half-life: Mean half-life
# [5] = biological target: other Src-family member kinases; conditions: cited from earlier work
# Bcr-Abl F317L = conditions: cited from earlier work
# CML = conditions: newly diagnosed patients with CML-CP; cited from earlier work
compound,measurement,setting,value
Cc1ccc(NC(=O)c2ccc(CN3CC[C@H](N(C)C)C3)c(C(F)(F)F)c2)cc1Nc1nccc(-c2cncnc2)n1 [INNO-406],"Adverse events, NCI category infection","[1]; % of patients, N = 56",33.9%
same,Deaths since beginning treatment,[1]; all related to leukemia progression,Five
same,"Adverse events, NCI category blood/bone marrow","[1]; human, in vivo",25.0%
same,"Adverse events, NCI category cardiac general","[1]; human, in vivo",12.5%
same,"Adverse events, NCI category constitutional symptoms","[1]; human, in vivo",48.2%
same,"Adverse events, NCI category dermatology/skin","[1]; human, in vivo",28.6%
same,"Adverse events, NCI category gastrointestinal","[1]; human, in vivo",64.3%
same,"Adverse events, NCI category hemorrhage/bleeding","[1]; human, in vivo",10.7%
same,"Adverse events, NCI category lymphatics","[1]; human, in vivo",25.0%
same,"Adverse events, NCI category metabolic/laboratory","[1]; human, in vivo",73.2%
same,"Adverse events, NCI category musculoskeletal/soft tissue","[1]; human, in vivo",10.7%
same,"Adverse events, NCI category neurology","[1]; human, in vivo",23.2%
same,"Adverse events, NCI category pain","[1]; human, in vivo",58.9%
same,"Adverse events, NCI category pulmonary/upper respiratory","[1]; human, in vivo",17.9%
same,Drug-related acute renal failure,"[1]; human, in vivo",2 (4) No. (%)
same,Drug-related elevated creatinine,"[1]; human, in vivo",1 (2) No. (%)
same,Drug-related hypertension,"[1]; human, in vivo",1 (2) No. (%)
same,Drug-related hyperuricemia,"[1]; human, in vivo",1 (2) No. (%)
same,Drug-related increased ALT,"[1]; human, in vivo",9 (16) No. (%)
same,Drug-related increased GGT,"[1]; human, in vivo",2 (4) No. (%)
same,Drug-related increased bilirubin,"[1]; human, in vivo",2 (4) No. (%)
same,Drug-related intrahepatic cholestasis,"[1]; human, in vivo",1 (2) No. (%)
same,Drug-related prolonged QTc interval,"[1]; human, in vivo",1 (2) No. (%)
same,Drug-related thrombocytopenia,"[1]; human, in vivo",1 (2) No. (%)
same,"Grade 3 thrombocytopenia, drug- and non-drug-related","[1]; human, in vivo",2 patients
same,"Grade 4 thrombocytopenia, drug- and non-drug-related","[1]; human, in vivo",3 patients
same,QTc >500 msec,"[1]; human, in vivo",1 patient
same,QTcB increased to grade 2,"[1]; human, in vivo",4 patients
same,QTcF increased to grade 2,"[1]; human, in vivo",1 patient
same,Pleural or pericardial effusions,[1]; in vivo,No cases
same,Recommended phase 2 dose based on DLT and MTD,[1]; orally BID,240 mg
same,Minimal-Minor Cytogenetic Response,"Ph-positive CML or ALL; 60 mg QD, N = 3",1 (33) n (%)
same,Complete Cytogenetic Response,"Ph-positive CML or ALL; 120 mg BID, N = 6",1 (17) n (%)
same,Complete Cytogenetic Response,"Ph-positive CML or ALL; 120 mg QD, N = 6",1 (17) n (%)
same,Complete Cytogenetic Response,"Ph-positive CML or ALL; 240 mg BID, N = 17",1 (6) n (%)
same,Partial Cytogenetic Response,"Ph-positive CML or ALL; 240 mg BID, N = 17",2 (12) n (%)
same,Minimal-Minor Cytogenetic Response,"Ph-positive CML or ALL; 360 mg BID, N = 7",1 (14) n (%)
same,Partial Cytogenetic Response,"Ph-positive CML or ALL; 480 mg BID, N = 5",1 (20) n (%)
same,Response in patients with T315I mutations,Ph-positive CML or ALL; 4 patients with T315I mutations,None
same,Complete Cytogenetic Response,"Ph-positive CML or ALL; Total, all doses, N = 56",3 (5) n (%)
same,Minimal-Minor Cytogenetic Response,"Ph-positive CML or ALL; Total, all doses, N = 56",2 (4) n (%)
same,Partial Cytogenetic Response,"Ph-positive CML or ALL; Total, all doses, N = 56",3 (5) n (%)
same,Complete and partial hematologic responses,Ph-positive CML or ALL; all doses,3 patients
same,Major cytogenetic response rate,Ph-positive CML or ALL; all patients enrolled (6 of 56 patients),11%
same,Major cytogenetic responses,Ph-positive CML or ALL; patients treated with doses of 240 mg BID or greater,4
same,Responses,"Ph-positive CML or ALL; patients with CML-AP, CML-BP, or Ph-positive ALL",No responses
same,Major cytogenetic response rate,Ph-positive CML or ALL; patients with CML-CP (6 of 31 patients),19%
same,Major cytogenetic responses,"Ph-positive CML or ALL; patients with CML-CP, all doses",6 patients
same,In vivo potency relative to imatinib,[2],at least 10 times
same,Kinase activity,Lyn kinase,specific Lyn kinase activity
same,Sensitivity of mutation in vitro,Bcr-Abl F317V,sensitive
same,Deaths,[3],no deaths occurred
same,Inhibition of autophosphorylation relative to imatinib,unmutated Bcr-Abl,more potently inhibited
same,Mean time to achieve peak concentration,"[4]; 240 mg BID cohort, SD = 0.5",1.3 h
same,Mean (SD) accumulation factor,[4]; BID dosing,2.73 (4.96)
same,Accumulation,"[4]; day 15, 360 and 480 mg BID cohorts",accumulation of INNO-406 was observed
same,Dose proportionality of Cmax and AUC,"[4]; entire study population, for AUC not demonstrable with BID dosing",dose proportional
same,Cmax,"[4]; human, in vivo, oral, 240 mg",487 ng/mL
same,half-life,"[4]; human, in vivo, oral, BID dosing, day 1, SD 0.817",119 min
same,half-life,"[4]; human, in vivo, oral, BID dosing, day 15, SD 0.751",137 min
same,Kinase activity,[5],no or limited activity
same,Sensitivity of mutation in vitro,Bcr-Abl F317L,sensitive
"Cc1ccc(NC(=O)c2ccc(CN3CCN(C)CC3)cc2)cc1Nc1nccc(-c2cccnc2)n1 [imatinib, imatinib mesylate]",Estimated 5 to 7-year survival rates,CML,over 90%
